This is an account of results in patent US20230212129A1, “QUINAZOLINE DERIVATIVES USEFUL AS SELECTIVE HDAC6 INHIBITORS” (AnnJi Pharmaceutical Co., Ltd., priority 2020, published 2023).

The test system of series [1] is dorsal root ganglion (DRG) cells. Briefly: DRG neurite outgrowth after paclitaxel-induced damage. The series is classed as cell-based, C57BL/6J mice. Particulars: 0.1 μM and 1 μM, 24 hours prior to 24-hour 0.1 μM paclitaxel; FIG. 1. On the procedure:
To investigate the effect of HDAC6 inhibitors in neuron protection and neuron regeneration, the recovery of dorsal root ganglion (DRG) cells post-paclitaxel injury was tested. Dorsal root ganglion was extracted from 7 week-old female C57BL/6J mice and incubated with HDAC6 inhibitors (compounds COMPOUND 33, COMPOUND 34, or COMPOUND 2) at the concentrations of 0.1 μM and 1 μM, or 100 ng/ml of BDNF, a neuronal growth factor (positive control), for 24 hours prior to a 24-hour incubation of 0.1 μM paclitaxel.
The neurite was stained by pIII-tubulin.

In series [2] the test system is BioMAP Fibrosis panel (REMyoF, SAEMyoF, MyoF systems). Briefly: BioMAP Fibrosis panel cytokine/biomarker profiles. The series is classed as cell-based. On the procedure:
The HDAC6 inhibitor compounds were tested in a commercially available platform, BioMAP, for the cytokine profiles in related to tissue injuries. The BioMAP Fibrosis panel included 3 systems stimulated to model TGFβ and TNFα driven myofibroblast differentiation during chronic inflammation and wound healing in different tissue settings. Fibrotic disease of the kidney associated with end-stage renal failure was captured in the REMyoF system consisting of a co-culture of renal proximal tubule epithelial cells and adult fibroblasts. Interstitial lung diseases, including pulmonary fibrotic diseases such as idiopathic pulmonary fibrosis (IPF), was modeled by co-culturing small airway epithelial cells and adult fibroblasts in the SAEMyoF system. Both co-culture systems modeled the paracrine interaction between myofibroblasts and the proximally located epithelial cells, while the impact on fibroblasts alone was interrogated using the monoculture MyoF system. A signature BioMAP profile that is reflective of the changes in protein biomarker readouts within an individual system was generated for each testing compounds. Biomarker readouts selected for therapeutic and biological relevance were predictive for disease outcomes or specific drug effects, and was validated using agents with known clinical efficacy. Each readout was measured quantitatively by immune-based methods that detect protein (e.g., ELISA).

Another series has as its target T1, HDAC6 (Homo sapiens, UniProt Q9UBN7).
T1 construct: GST (N); host or cells: baculovirus expression system, Sf9 insect cells
T1 sequence (Q9UBN7 1-1215): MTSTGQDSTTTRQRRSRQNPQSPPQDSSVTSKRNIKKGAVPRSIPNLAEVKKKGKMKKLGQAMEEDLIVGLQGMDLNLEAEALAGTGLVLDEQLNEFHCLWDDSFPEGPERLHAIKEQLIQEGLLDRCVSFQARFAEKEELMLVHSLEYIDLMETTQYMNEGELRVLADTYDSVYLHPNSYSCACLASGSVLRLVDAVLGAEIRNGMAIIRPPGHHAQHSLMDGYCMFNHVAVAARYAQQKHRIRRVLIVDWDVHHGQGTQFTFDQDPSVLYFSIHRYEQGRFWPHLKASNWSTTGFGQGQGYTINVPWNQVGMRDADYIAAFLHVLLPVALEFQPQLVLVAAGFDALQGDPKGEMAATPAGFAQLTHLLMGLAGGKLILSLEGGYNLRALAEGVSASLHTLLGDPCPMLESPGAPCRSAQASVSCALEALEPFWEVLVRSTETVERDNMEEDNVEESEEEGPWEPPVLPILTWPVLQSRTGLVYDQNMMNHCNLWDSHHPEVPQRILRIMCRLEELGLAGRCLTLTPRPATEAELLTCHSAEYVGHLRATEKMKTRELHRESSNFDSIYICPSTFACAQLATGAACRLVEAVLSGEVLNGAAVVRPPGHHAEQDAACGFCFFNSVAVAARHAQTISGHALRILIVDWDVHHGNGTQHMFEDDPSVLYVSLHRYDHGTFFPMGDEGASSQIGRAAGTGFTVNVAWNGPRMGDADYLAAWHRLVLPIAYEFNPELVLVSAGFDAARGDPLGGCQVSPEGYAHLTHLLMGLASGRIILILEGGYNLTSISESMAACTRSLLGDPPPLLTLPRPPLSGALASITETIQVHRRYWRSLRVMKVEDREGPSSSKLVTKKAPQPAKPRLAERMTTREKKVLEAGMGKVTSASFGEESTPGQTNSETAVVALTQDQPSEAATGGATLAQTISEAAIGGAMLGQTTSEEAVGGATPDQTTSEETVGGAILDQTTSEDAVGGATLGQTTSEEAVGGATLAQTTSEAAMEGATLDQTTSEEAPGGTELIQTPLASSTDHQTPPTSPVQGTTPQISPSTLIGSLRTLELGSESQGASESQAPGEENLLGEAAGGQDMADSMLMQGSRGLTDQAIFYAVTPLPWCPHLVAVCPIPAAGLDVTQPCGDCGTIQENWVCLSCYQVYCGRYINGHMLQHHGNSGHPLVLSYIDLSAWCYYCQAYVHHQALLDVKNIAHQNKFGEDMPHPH
Briefly: HDAC6 activity, acetylated-AMC-labeled peptide substrate. The series is classed as biochemical. On the procedure:
The activities of HDAC 1 and 6 were measured by using an acetylated-AMC-labeled peptide substrate, a fluorogenic peptide from p53 residues 379-382 (RHIKKAc). The proteins involved in the assay are as the followings (1) Human HIDAC1 (Genflank Accession No. NM_004964): Full length with C-terminal GST tag, MW=79.9 kDa, expressed by baculovirus expression system in SP9 cells; and (2) Human HIDAC6 (Genflank Accession No. BC069243): Full length with N-terminal GST tag, MW=159 kDa, expressed by baculovirus expression system in Sf9 cells.

Series [3] relates to bleomycin-induced pulmonary fibrosis. Briefly: Bleomycin-induced pulmonary fibrosis model, lung histology (H&E). The series is classed as in vivo, mice. On the procedure: The activities of compounds COMPOUND 2 and COMPOUND 33 in preventing and/or treating pulmonary fibrosis were examined using a bleomycin-induced pulmonary fibrosis model, a model that involves deactivated bleomycin hydrolase, elevated oxidative stress, and increased inflammatory cytokines. In the prevention model, mice were administered bleomycin intratracheally an hour in prior to the first oral administration of 30 mg/kg testing compounds. The treatment continued for 21 consecutive days, and mice were sacrificed to examine histological changes of lung tissues were analyzed by H&E staining to evaluate the degree of lung fibrosis. Additionally, the HDAC6 inhibitors, COMPOUND 2 and COMPOUND 33, were tested for their effect in aiding animal recovery from lung injury and pulmonary fibrosis post injury.

The nature of series [4]: Oral pharmacokinetics (Table II). Also on record: AUC: concentration or dose not given beside the values. The following applies: in vivo.

One may read the IC50 as the concentration that gives 50% inhibition. Usually Cmax stands for the highest concentration seen after dosing. A word on the AUC: it is concentration integrated over time.

For the compound `CCc1nc2cc(F)c(/C=C/C(=O)NO)cc2c(=O)n1-c1c(C)cccc1C` [Compound 2, (E)-3-(3-(2,6-dimethylphenyl)-2-ethyl-7-fluoro-4-oxo-3,4-dihydroquinazolin-6-yl)-N-hydroxyacrylamide], the neurite outgrowth result in series [1] is “significantly rescued the neurite outgrowth”. Further, in series [2] (BioMAP readouts), the fibrosis-related matrix activities entry is given as “decreased TIMP-1, MMP-1, Collagen I, Collagen III, MMP-9”; the inflammation-related activities result was “decreased M-CSF, VCAM-1, sIL-6, MCP-1; increased I-TAC”; the myofibroblast activation-related activities entry is “decreased αSMA, N-Cadherin”; the “tissue remodeling/wound healing activities” value is “decreased EGFR, tPA, uPA, bFGF, sVEGF”. Also, the “activities on cytokines contributing to fibrosis” value in series [2] (compared with nintedanib) is “marked activities in decreasing TNF-α, IL-1, IL-6, MMP-9, VEGF, and collagen I”. Also, the “HDAC6 selectivity (A)/(B)” value on HDAC6 (HDAC1 IC50 / HDAC6 IC50) came to 2585. The IC50 on HDAC6 (read-out: HDAC6 IC50 (B)) worked out at 2 nM. The “development of lung fibrosis” value in series [3] (prevention model, 30 mg/kg oral, 21 consecutive days, FIG. 5) is reported as “markedly decreased the development of lung fibrosis”. Besides, the “recovery from lung injury and pulmonary fibrosis post injury” value in series [3] (treatment post injury) is “protective effect in pulmonary inflammatory response and pulmonary fibrosis”. This compound also gave a Cmax in series [4] of 1150 ng/mL. The AUC in series [4] (unit inferred) was 12500 ng·h/mL.
